Results reported in PubChem BioAssay AID1963825 (Molecular Pharmacology Branch, DTP, NCI, 2024).

Assay: Anticancer human tumor 997537-175-T-J1-PDC patient-derived colon adenocarcinoma cell line growth inhibition [POLQ]
Settings: 997537-175-T-J1-PDC complex spheroid viability, combination with POLQ inhibitors; for IC50: curve of first compound; for viability, T/C: stronger effect = lower value; active means viability on the fitted dose curve at most 10% of control; inactive means the rest
Summary of the method: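 Complex spheroid viability model combining PDC tumour cells with endothelial (HUVEC) and MSC stromal cells. Novobiocin, ART-558 or RP6685 were tested singly and in combination with standard and investigational anticancer drugs. Each was titrated in half-log steps from near clinical Cmax, or from 10 microM where Cmax was unknown.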

[1] = second compound 0.0316 µM, first compound 0.0316 µM
[2] = second compound 0.0316 µM, first compound 0.1 µM
[3] = second compound 0.0316 µM, first compound 0.316 µM
[4] = second compound 0.0316 µM, first compound 1 µM
[5] = second compound 0.0316 µM, first compound 3.16 µM
[6] = second compound 0.0316 µM, first compound 10 µM
[7] = second compound 0.1 µM, first compound 0.0316 µM
[8] = second compound 0.1 µM, first compound 0.1 µM
[9] = second compound 0.1 µM, first compound 0.316 µM
[10] = second compound 0.1 µM, first compound 1 µM
[11] = second compound 0.1 µM, first compound 3.16 µM
[12] = second compound 0.1 µM, first compound 10 µM
[13] = second compound 0.316 µM, first compound 0.0316 µM
[14] = second compound 0.316 µM, first compound 0.1 µM
[15] = second compound 0.316 µM, first compound 0.316 µM
[16] = second compound 0.316 µM, first compound 1 µM
[17] = second compound 0.316 µM, first compound 3.16 µM
[18] = second compound 0.316 µM, first compound 10 µM
[19] = second compound 1 µM, first compound 0.0316 µM
[20] = second compound 1 µM, first compound 0.1 µM
[21] = second compound 1 µM, first compound 0.316 µM
[22] = second compound 1 µM, first compound 1 µM
[23] = second compound 1 µM, first compound 3.16 µM
[24] = second compound 1 µM, first compound 10 µM
[25] = second compound 3.16 µM, first compound 0.0316 µM
[26] = second compound 3.16 µM, first compound 0.1 µM
[27] = second compound 3.16 µM, first compound 0.316 µM
[28] = second compound 3.16 µM, first compound 1 µM
[29] = second compound 3.16 µM, first compound 3.16 µM
[30] = second compound 3.16 µM, first compound 10 µM
[31] = second compound 10 µM, first compound 0.0316 µM
[32] = second compound 10 µM, first compound 0.1 µM
[33] = second compound 10 µM, first compound 0.316 µM
[34] = second compound 10 µM, first compound 1 µM
[35] = second compound 10 µM, first compound 3.16 µM
[36] = second compound 10 µM, first compound 10 µM
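Further: luminescence signal used as a surrogate for viable cells; spheroids exposed to drugs for seven days before readout.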

CC1COCCN1c1cc(C2(O)CC3CCC(C2)O3)c2cnn(-c3ccn[nH]3)c2n1 (centres undefined) + COC1C(OC(N)=O)C(O)C(Oc2ccc3c(O)c(NC(=O)c4ccc(O)c(CC=C(C)C)c4)c(=O)oc3c2C)OC1(C)C
inactive: viability, T/C [1] 72.4% | viability, T/C [2] 70.1% | viability, T/C [3] 42.2% | viability, T/C [4] 36.9% | viability, T/C [5] 40.1% | viability, T/C [6] 52% | viability, T/C [7] 75.6% | viability, T/C [8] 81.3% | viability, T/C [9] 36% | viability, T/C [10] 37.9% | viability, T/C [11] 50.3% | viability, T/C [12] 60.8% | viability, T/C [13] 84.2% | viability, T/C [14] 66.8% | viability, T/C [15] 41.2% | viability, T/C [16] 51.1% | viability, T/C [17] 51.4% | viability, T/C [18] 50.8% | viability, T/C [19] 82.9% | viability, T/C [20] 68% | viability, T/C [21] 59.5% | viability, T/C [22] 55.3% | viability, T/C [23] 64.2% | viability, T/C [24] 42.8% | viability, T/C [25] 82.8% | viability, T/C [26] 68.1% | viability, T/C [27] 47.9% | viability, T/C [28] 48.9% | viability, T/C [29] 61.7% | viability, T/C [30] 50.8% | viability, T/C [31] 71.3% | viability, T/C [32] 60.5% | viability, T/C [33] 41.1% | viability, T/C [34] 58.3% | viability, T/C [35] 61.7% | viability, T/C [36] 63.6%
> 10 µM: IC50 (second compound 1 µM) | IC50 (second compound 3.16 µM) | IC50 (second compound 10 µM)
0.276 µM: IC50 (second compound 0.1 µM)
0.234 µM: IC50 (second compound 0.0316 µM)
0.29 µM: IC50 (second compound 0.316 µM)

COc1cc(C2c3cc4c(cc3C(OC3OC5COC(C)OC5C(O)C3O)C3COC(=O)C23)OCO4)cc(OC)c1O (centres undefined) + COC1C(OC(N)=O)C(O)C(Oc2ccc3c(O)c(NC(=O)c4ccc(O)c(CC=C(C)C)c4)c(=O)oc3c2C)OC1(C)C
inactive: viability, T/C [1] 99.8% | viability, T/C [2] 95% | viability, T/C [3] 93.1% | viability, T/C [4] 89.9% | viability, T/C [5] 74.7% | viability, T/C [6] 67.3% | viability, T/C [7] 103% | viability, T/C [8] 114% | viability, T/C [9] 99.3% | viability, T/C [10] 93.7% | viability, T/C [11] 60.2% | viability, T/C [12] 88.5% | viability, T/C [13] 97.3% | viability, T/C [14] 107% | viability, T/C [15] 99.2% | viability, T/C [16] 108% | viability, T/C [17] 92.3% | viability, T/C [18] 53.3% | viability, T/C [19] 93.5% | viability, T/C [20] 105% | viability, T/C [21] 110% | viability, T/C [22] 83.9% | viability, T/C [23] 88.8% | viability, T/C [24] 55.5% | viability, T/C [25] 109% | viability, T/C [26] 107% | viability, T/C [27] 87.7% | viability, T/C [28] 104% | viability, T/C [29] 63.5% | viability, T/C [30] 67.8% | viability, T/C [31] 106% | viability, T/C [32] 107% | viability, T/C [33] 108% | viability, T/C [34] 100% | viability, T/C [35] 84.9% | viability, T/C [36] 66.1%
> 10 µM: IC50 (second compound 0.0316 µM) | IC50 (second compound 0.1 µM) | IC50 (second compound 0.316 µM) | IC50 (second compound 1 µM) | IC50 (second compound 3.16 µM) | IC50 (second compound 10 µM)
